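96-well plates; 48 h exposure; 5 concentrations. Endpoints by linear interpolation between flanking doses. Not reached: highest tested concentration assigned. GI50 marks 50% less growth.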 The source made the active and inactive calls. Cut-off read from the data, not from the text of the source: active = GI50 up to about 1.1 µM and inactive = higher.
What was measured:
Test in all cases: growth of human tumour cells (NCI), 48 h
A498 = system: A498
HCC 2998 = system: HCC 2998
HCT-15 = system: HCT-15
HL-60 = system: HL-60
IGROV-1 = system: IGROV-1
K562 = system: K562
MCF7 = system: MCF7
MDA-MB-231 = system: MDA-MB-231
MDA-MB-435 = system: MDA-MB-435
Malme-3M = system: Malme-3M
NCI-H460 = system: NCI-H460
OVCAR-5 = system: OVCAR-5
RXF 393 = system: RXF 393
SK-MEL-5 = system: SK-MEL-5
SR = system: SR
T47D = system: T47D
CAKI-1 = system: CAKI-1
COLO 205 = system: COLO 205
OVCAR-4 = system: OVCAR-4
UO-31 = system: UO-31

## B.CC(=O)OC1CN2CCC1CC2 (stereo unspecified)
A498
  GI50: > 100 µM (inactive)
HCC 2998
  GI50: > 100 µM (inactive)
HCT-15
  GI50: > 100 µM
HL-60
  GI50: > 100 µM (inactive)
IGROV-1
  GI50: > 100 µM (inactive)
K562
  GI50: > 100 µM (inactive)
MCF7
  GI50: > 100 µM (inactive)
MDA-MB-231
  GI50: > 100 µM (inactive)
MDA-MB-435
  GI50: > 100 µM (inactive)
Malme-3M
  GI50: > 100 µM (inactive)
NCI-H460
  GI50: > 100 µM (inactive)
OVCAR-5
  GI50: > 100 µM (inactive)
RXF 393
  GI50: > 100 µM (inactive)
SK-MEL-5
  GI50: > 100 µM (inactive)
SR
  GI50: > 100 µM (inactive)
T47D
  GI50: > 100 µM (inactive)

## CC1CCCCN1CC(=O)c1ccc2c(c1)Sc1ccccc1O2 (stereo unspecified)
A498
  GI50: 18.8 µM (inactive)
CAKI-1
  GI50: 17.9 µM (inactive)
COLO 205
  GI50: 24 µM (inactive)
HCC 2998
  GI50: 17.7 µM (inactive)
HCT-15
  GI50: 19.7 µM
HL-60
  GI50: 10.2 µM (inactive)
IGROV-1
  GI50: 6.49 µM (inactive)
K562
  GI50: 30.3 µM (inactive)
MCF7
  GI50: 16 µM (inactive)
MDA-MB-231
  GI50: 24.7 µM (inactive)
MDA-MB-435
  GI50: 13.8 µM (inactive)
Malme-3M
  GI50: 13.5 µM (inactive)
NCI-H460
  GI50: 14.2 µM (inactive)
OVCAR-4
  GI50: 13.2 µM (inactive)
OVCAR-5
  GI50: 18.1 µM (inactive)
RXF 393
  GI50: 13.8 µM (inactive)
SR
  GI50: 15.3 µM (inactive)
T47D
  GI50: 20.7 µM (inactive)
UO-31
  GI50: 12.3 µM (inactive)

## O=c1[nH]c(=O)n(C2CC(O)C(CO)O2)c2nc3ccc4cc5ccccc5cc4c3nc12 (stereo unspecified)
A498
  GI50: > 100 µM (inactive)
CAKI-1
  GI50: > 100 µM (inactive)
COLO 205
  GI50: > 100 µM (inactive)
HCC 2998
  GI50: > 100 µM (inactive)
HCT-15
  GI50: > 100 µM
IGROV-1
  GI50: > 100 µM (inactive)
K562
  GI50: > 100 µM (inactive)
MCF7
  GI50: > 100 µM (inactive)
MDA-MB-231
  GI50: > 100 µM (inactive)
MDA-MB-435
  GI50: > 100 µM (inactive)
Malme-3M
  GI50: > 100 µM (inactive)
OVCAR-4
  GI50: 80.7 µM (inactive)
OVCAR-5
  GI50: > 100 µM (inactive)
RXF 393
  GI50: > 100 µM (inactive)
SK-MEL-5
  GI50: > 100 µM (inactive)
SR
  GI50: 69.5 µM (inactive)
T47D
  GI50: > 100 µM (inactive)
UO-31
  GI50: > 100 µM (inactive)

## CCCCCCOc1ccc(NC2=C(Cl)C(=O)c3c(O)ccc(O)c3C2=O)cc1
A498
  GI50: 4.57 µM (inactive)
CAKI-1
  GI50: 5.28 µM (inactive)
COLO 205
  GI50: 1.78 µM (inactive)
HCC 2998
  GI50: 1.8 µM (inactive)
HCT-15
  GI50: 1.91 µM
HL-60
  GI50: 1.77 µM (inactive)
K562
  GI50: 3.1 µM (inactive)
MCF7
  GI50: 0.414 µM (active)
MDA-MB-231
  GI50: 1.86 µM (inactive)
MDA-MB-435
  GI50: 1.72 µM (inactive)
Malme-3M
  GI50: 1.83 µM (inactive)
NCI-H460
  GI50: 1.01 µM (active)
OVCAR-4
  GI50: 4.14 µM (inactive)
OVCAR-5
  GI50: > 10 µM (inactive)
RXF 393
  GI50: 2.32 µM (inactive)
SK-MEL-5
  GI50: 1.31 µM (inactive)
SR
  GI50: 1.94 µM (inactive)
T47D
  GI50: 2.03 µM (inactive)
UO-31
  GI50: 2.2 µM (inactive)

## CN1CCN(CCCNN)CC1
A498
  GI50: > 100 µM (inactive)
CAKI-1
  GI50: > 100 µM (inactive)
COLO 205
  GI50: > 100 µM (inactive)
HCC 2998
  GI50: > 100 µM (inactive)
HCT-15
  GI50: > 100 µM
HL-60
  GI50: 7.33 µM (inactive)
IGROV-1
  GI50: > 100 µM (inactive)
K562
  GI50: 1.87 µM (inactive)
MCF7
  GI50: > 100 µM (inactive)
MDA-MB-231
  GI50: > 100 µM (inactive)
MDA-MB-435
  GI50: > 100 µM (inactive)
NCI-H460
  GI50: > 100 µM (inactive)
OVCAR-4
  GI50: > 100 µM (inactive)
OVCAR-5
  GI50: > 100 µM (inactive)
RXF 393
  GI50: > 100 µM (inactive)
SK-MEL-5
  GI50: > 100 µM (inactive)
SR
  GI50: 0.0327 µM (active)
T47D
  GI50: > 100 µM (inactive)
UO-31
  GI50: > 100 µM (inactive)

## CC(C)(O)CCC(O)C(C)(O)C1CCC2(O)C3=CC(=O)C4(O)CC(O)C(O)CC4(C)C3CCC12C.CC(C)(O)CCC(O)C(C)(O)C1CCC2(O)C3=CC(=O)C4CC(O)C(O)CC4(C)C3CCC12C (stereo unspecified)
A498
  GI50: > 100 µM (inactive)
CAKI-1
  GI50: > 100 µM (inactive)
COLO 205
  GI50: > 100 µM (inactive)
HCT-15
  GI50: > 100 µM
HL-60
  GI50: > 100 µM (inactive)
IGROV-1
  GI50: > 100 µM (inactive)
K562
  GI50: > 100 µM (inactive)
MCF7
  GI50: 86.7 µM (inactive)
MDA-MB-231
  GI50: > 100 µM (inactive)
MDA-MB-435
  GI50: > 100 µM (inactive)
Malme-3M
  GI50: > 100 µM (inactive)
NCI-H460
  GI50: > 100 µM (inactive)
OVCAR-4
  GI50: > 100 µM (inactive)
OVCAR-5
  GI50: > 100 µM (inactive)
RXF 393
  GI50: > 100 µM (inactive)
SK-MEL-5
  GI50: > 100 µM (inactive)
SR
  GI50: > 100 µM (inactive)
T47D
  GI50: > 100 µM (inactive)
UO-31
  GI50: > 100 µM (inactive)

## COc1cccc(-c2nc(O)c3ccccc3n2)c1OC
A498
  GI50: > 100 µM (inactive)
CAKI-1
  GI50: > 100 µM (inactive)
COLO 205
  GI50: > 100 µM (inactive)
HCC 2998
  GI50: > 100 µM (inactive)
HCT-15
  GI50: > 100 µM
IGROV-1
  GI50: > 100 µM (inactive)
MCF7
  GI50: > 100 µM (inactive)
MDA-MB-231
  GI50: 74.3 µM (inactive)
MDA-MB-435
  GI50: > 100 µM (inactive)
Malme-3M
  GI50: > 100 µM (inactive)
NCI-H460
  GI50: > 100 µM (inactive)
OVCAR-4
  GI50: > 100 µM (inactive)
OVCAR-5
  GI50: > 100 µM (inactive)
RXF 393
  GI50: > 100 µM (inactive)
SK-MEL-5
  GI50: > 100 µM (inactive)
SR
  GI50: > 100 µM (inactive)
T47D
  GI50: > 100 µM (inactive)
UO-31
  GI50: > 100 µM (inactive)

## COc1ccc(NC(=O)CC(=O)n2nc(C)c(/N=N/c3ccc(C)c(C)c3)c2C)cc1
A498
  GI50: 63.8 µM (inactive)
CAKI-1
  GI50: > 100 µM (inactive)
COLO 205
  GI50: > 100 µM (inactive)
HCC 2998
  GI50: > 100 µM (inactive)
HL-60
  GI50: 48.3 µM (inactive)
IGROV-1
  GI50: 29.4 µM (inactive)
MCF7
  GI50: > 100 µM (inactive)
MDA-MB-231
  GI50: > 100 µM (inactive)
MDA-MB-435
  GI50: > 100 µM (inactive)
Malme-3M
  GI50: > 100 µM (inactive)
NCI-H460
  GI50: > 100 µM (inactive)
OVCAR-4
  GI50: > 100 µM (inactive)
OVCAR-5
  GI50: > 100 µM (inactive)
RXF 393
  GI50: 32.4 µM (inactive)
SK-MEL-5
  GI50: > 100 µM (inactive)
SR
  GI50: 43.3 µM (inactive)
T47D
  GI50: 64.7 µM (inactive)
UO-31
  GI50: 24.5 µM (inactive)

Reference: ChEMBL document CHEMBL1201862, “PubChem BioAssay data set” (2004)
